# Calls of active or inactive are those of the source. The calls are words filed in the database; no cut-off is given here.
# Tests used:
# [1] = target: T1, 5-hydroxytryptamine receptor 1A (Rattus norvegicus, UniProt P19327); assay: Binding affinity towards 5-hydroxytryptamine 1A receptor
# T1 sequence (P19327 whole entry): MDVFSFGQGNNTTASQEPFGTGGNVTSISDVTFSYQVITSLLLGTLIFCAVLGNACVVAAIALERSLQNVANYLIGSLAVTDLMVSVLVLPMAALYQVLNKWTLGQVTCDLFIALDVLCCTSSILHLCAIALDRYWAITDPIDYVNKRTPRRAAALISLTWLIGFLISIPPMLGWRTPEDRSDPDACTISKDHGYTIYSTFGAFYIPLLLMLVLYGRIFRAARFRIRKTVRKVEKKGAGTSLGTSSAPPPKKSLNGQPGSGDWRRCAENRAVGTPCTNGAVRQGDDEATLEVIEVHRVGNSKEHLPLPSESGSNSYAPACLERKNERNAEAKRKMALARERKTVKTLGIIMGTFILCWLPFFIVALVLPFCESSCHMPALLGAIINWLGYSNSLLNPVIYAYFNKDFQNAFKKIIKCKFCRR
# [2] = target: T2, 5-hydroxytryptamine receptor 1B (Rattus norvegicus, UniProt P28564); assay: Evaluated for binding affinity towards 5-hydroxytryptamine 1B receptor
# T2 sequence (P28564 whole entry): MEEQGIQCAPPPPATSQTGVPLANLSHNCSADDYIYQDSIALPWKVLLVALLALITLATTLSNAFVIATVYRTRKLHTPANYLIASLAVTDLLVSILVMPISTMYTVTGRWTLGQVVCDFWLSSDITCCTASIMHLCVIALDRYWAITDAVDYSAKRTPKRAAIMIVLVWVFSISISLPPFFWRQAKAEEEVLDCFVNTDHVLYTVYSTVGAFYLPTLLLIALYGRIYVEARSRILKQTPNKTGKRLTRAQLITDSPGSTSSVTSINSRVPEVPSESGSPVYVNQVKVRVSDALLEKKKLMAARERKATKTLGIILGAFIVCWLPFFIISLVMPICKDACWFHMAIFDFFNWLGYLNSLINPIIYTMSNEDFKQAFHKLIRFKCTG
# Rattus norvegicus [3] = species on record: Rattus norvegicus; assay: The dose at which the animals show 50% responses on drug-appropriate lever; assay type: functional
# [4] = target: T3, Serotonin 2 (5-HT2) receptor (Rattus norvegicus, UniProt P30994+P08909+P14842); assay: Binding affinity towards 5-hydroxytryptamine 2 receptor using [3H]- ketanserin as radioligand; assay type: protein assay
# Rattus norvegicus [5] = species on record: Rattus norvegicus; assay: The dose at which the animals would show 50% responses on compound-appropriate lever; assay type: functional
# [6] = target: T3, Serotonin 2 (5-HT2) receptor; assay: Binding affinity towards 5-hydroxytryptamine 2 receptor using [3H]- 1-(4-bromo-2,5-dimethoxy-phenyl)-2-aminopropane (D) as radioligand; assay type: protein assay
# Rattus norvegicus [7] = assay: 8-OH-DPAT appropriate response rate in % at 0.9 mg/kg where stimulus generalization occurred (4/7 no of animals); assay type: functional
# Rattus norvegicus [8] = assay: DOM appropriate response rate in % at 6.0 mg/Kg where stimulus generalization occurred(3/5 no of animals); assay type: functional
# Rattus norvegicus [9] = assay: DOM appropriate response of animals/min rate in % at 2.0 mg/kg where stimulus generalization occurred(4/5 no of animals); assay type: functional
# Rattus norvegicus [10] = assay: DOM appropriate response rate in % at 2.0 mg/Kg where stimulus generalization occurred(4/5 no of animals); assay type: functional
# Rattus norvegicus [11] = assay: 8-OH-DPAT appropriate response rate in % at 1.0 mg/kg where stimulus generalization occurred(4/5 no of animals); assay type: functional
# Rattus norvegicus [12] = assay: 8-OH-DPAT appropriate response of animals/min rate in % 1.0 mg/kg where stimulus generalization occurred(4/5 no of animals); assay type: functional
# Rattus norvegicus [13] = assay: 8-OH-DPAT appropriate response of animals/min rate in % 1.1 mg/kg where stimulus generalization occurred(4/5 no of animals); assay type: functional
# Rattus norvegicus [14] = assay: The dose at which the animals would show 50% responses on DOM appropriate lever at a dose 6.0 mg/kg; assay type: functional
# Rattus norvegicus [15] = assay: 8-OH-DPAT appropriate response rate in % at 1.1 mg/kg where stimulus generalization occurred(4/5 no of animals); assay type: functional
# Rattus norvegicus [16] = assay: DOM appropriate response of animals/min rate in % at 5.0 mg/Kg where stimulus generalization occurred(4/5 no of animals); assay type: functional
# Rattus norvegicus [17] = assay: DOM appropriate response of animals/min rate in % at 0.6 mg/Kg where stimulus generalization occurred(5/5 no of animals); assay type: functional
# Rattus norvegicus [18] = species on record: Rattus norvegicus; assay: DOM appropriate response of animals/min rate in % at […] where stimulus generalization occurred(5/5 no of animals); assay type: functional
# Rattus norvegicus [19] = species on record: Rattus norvegicus; assay: 8-OH-DPAT appropriate response rate in % at […] where stimulus generalization occurred(2/5 no of animals); No responding; assay type: functional, organism-based; design: dose 1.2 mg/kg
# Rattus norvegicus [20] = assay: DOM appropriate response rate in % at 5.0 mg/Kg where stimulus generalization occurred(4/5 no of animals); assay type: functional
# Rattus norvegicus [21] = assay: 8-OH-DPAT appropriate response rate in % at 0.8 mg/kg where stimulus generalization occurred(3/4 no of animals); assay type: functional
# Rattus norvegicus [22] = assay: 8-OH-DPAT appropriate response rate in % at 0.4 mg/kg where stimulus generalization occurred(4/5 no of animals); assay type: functional
# Rattus norvegicus [23] = species on record: Rattus norvegicus; assay: DOM appropriate response rate in % at […] where stimulus generalization occurred(5/5 no of animals); assay type: functional
# Rattus norvegicus [24] = assay: DOM appropriate response rate in % at 0.6 mg/Kg where stimulus generalization occurred(5/5 no of animals); assay type: functional
# Rattus norvegicus [25] = assay: 8-OH-DPAT appropriate response of animals/min rate in % 0.4 mg/kg where stimulus generalization occurred(4/5 no of animals); assay type: functional
# Rattus norvegicus [26] = assay: 8-OH-DPAT appropriate response of animals/min rate in % 0.9 mg/kg where stimulus generalization occurred(4/7 no of animals); assay type: functional
# Rattus norvegicus [27] = assay: 8-OH-DPAT appropriate response of animals/min rate in % 0.8 mg/kg where stimulus generalization occurred(3/4 no of animals); assay type: functional
# Rattus norvegicus [28] = assay: DOM appropriate response of animals/min rate in % at 6.0 mg/Kg where stimulus generalization occurred(3/5 no of animals); assay type: functional
# [29] = target: T1, 5-hydroxytryptamine receptor 1A; assay: Binding affinity against 5-hydroxytryptamine 1A receptor in rat hippocampal tissue; assay type: tissue-based, Hippocampus
# Rattus norvegicus [30] = assay: DOM appropriate response rate in % at 1.0 mg/kg where stimulus generalization occurred (5/5 no of animals); assay type: functional
# [31] = target: T2, 5-hydroxytryptamine receptor 1B; assay: Binding affinity against 5-HT1B serotonin receptor in rat striatum; assay type: tissue-based
# Rattus norvegicus [32] = assay: DOM appropriate response of animals/min at 1.0 mg/kg where stimulus generalization occurred (5/5 no of animals); assay type: functional
# Rattus norvegicus [33] = assay: 8-OH-DPAT appropriate response of animals/min rate in %0.2 mg/Kg where stimulus generalization occurred(7/7 no of animals); assay type: functional
# Rattus norvegicus [34] = assay: The dose at which the animals would show 50% response on 8-OH-DPAT appropriate lever at a dose 0.2 mg/kg (7/7 no of animals); assay type: functional
# Rattus norvegicus [35] = assay: 8-OH-DPAT appropriate response rate in % at 0.2 mg/kg where stimulus generalization occurred(7/7 no of animals); assay type: functional
compound,measurement,setting,value
COc1ccc2[nH]cc(CCN(C)C)c2c1 [MEBUFOTENIN],Ki,[1],7.8 nM
same,Ki,[2],350 nM
same,ED50,Rattus norvegicus [3],1.43 mg/kg
CCCN(CCC)C1CCc2cccc(OC)c2C1 (configuration not stated),Ki,[1],1.3 nM
same,Ki,[2],> 1000 nM
same,Ki,[4],3050 nM
same,ED50,Rattus norvegicus [5],0.22 mg/kg
same,Ki,[6],280 nM
CCCN(CCC)CCc1c[nH]c2ccc(OC)cc12,Responding,Rattus norvegicus [7],56%
same,Responding,Rattus norvegicus [8],91%
same,Ki,[1],4 nM
same,Ki,[2],1800 nM
same,Response,Rattus norvegicus [9],12
same,Responding,Rattus norvegicus [10],51%
same,Ki,[4],655 nM
same,Responding,Rattus norvegicus [11],67%
same,Response,Rattus norvegicus [12],5.6
same,Response,Rattus norvegicus [13],4.1
same,ED50,Rattus norvegicus [14],1.68 mg/kg
same,Responding,Rattus norvegicus [15],81%
same,Ki,[6],7.1 nM
same,Response,Rattus norvegicus [16],10.3
same,Response,Rattus norvegicus [17],10.2
same,Response,Rattus norvegicus [18],12.3
same,Responding,Rattus norvegicus [19],inactive
same,Responding,Rattus norvegicus [20],74%
same,Responding,Rattus norvegicus [21],56%
same,Responding,Rattus norvegicus [22],15%
same,Responding,Rattus norvegicus [23],49%
same,Responding,Rattus norvegicus [24],21%
same,Response,Rattus norvegicus [25],13.6
same,Response,Rattus norvegicus [26],13.6
same,Response,Rattus norvegicus [27],9.2
same,Response,Rattus norvegicus [28],5.2
COc1cc(CC(C)N)c(OC)cc1C (configuration not stated) [DOM],Ki,[29],5120 nM
same,Responding,Rattus norvegicus [30],92%
same,Ki,[31],2070 nM
same,Response,Rattus norvegicus [32],12.8
CCCN(CCC)CCc1c[nH]c2ccc(O)cc12,Ki,[1],7.1 nM
same,Ki,[2],4300 nM
same,Ki,[4],450 nM
same,Ki,[6],1 nM
CCCN(CCC)C1CCc2cccc(O)c2C1 (configuration not stated) [8-OH-DPAT],Response,Rattus norvegicus [33],16.8
same,Ki,[4],5350 nM
same,Ki,[6],635 nM
same,ED50,Rattus norvegicus [34],0.08 mg/kg
same,Responding,Rattus norvegicus [35],88%
